What was measured:
PIK3CB (Human) [1] = molecular target: PIK3CB (Human) (UniProt P42338); experiment: Enzyme Assay
PIK3CD (Human) [2] = molecular target: PIK3CD (Human) (UniProt O00329); experiment: Enzyme Assay
PIK3CG (human) = PIK3CG (human) (UniProt P48736); experiment: Enzyme Assay
PIK3CD (Human) [3] = molecular target: PIK3CD (Human) (UniProt O00329); experiment: Cell-Based Assay; conditions: raji
PIK3CA (human) [4] = molecular target: PIK3CA (human) (UniProt P42336); experiment: Cell-Based Assay; conditions: skov-3
PIK3CA (human), sequence (P42336 whole entry, looked up): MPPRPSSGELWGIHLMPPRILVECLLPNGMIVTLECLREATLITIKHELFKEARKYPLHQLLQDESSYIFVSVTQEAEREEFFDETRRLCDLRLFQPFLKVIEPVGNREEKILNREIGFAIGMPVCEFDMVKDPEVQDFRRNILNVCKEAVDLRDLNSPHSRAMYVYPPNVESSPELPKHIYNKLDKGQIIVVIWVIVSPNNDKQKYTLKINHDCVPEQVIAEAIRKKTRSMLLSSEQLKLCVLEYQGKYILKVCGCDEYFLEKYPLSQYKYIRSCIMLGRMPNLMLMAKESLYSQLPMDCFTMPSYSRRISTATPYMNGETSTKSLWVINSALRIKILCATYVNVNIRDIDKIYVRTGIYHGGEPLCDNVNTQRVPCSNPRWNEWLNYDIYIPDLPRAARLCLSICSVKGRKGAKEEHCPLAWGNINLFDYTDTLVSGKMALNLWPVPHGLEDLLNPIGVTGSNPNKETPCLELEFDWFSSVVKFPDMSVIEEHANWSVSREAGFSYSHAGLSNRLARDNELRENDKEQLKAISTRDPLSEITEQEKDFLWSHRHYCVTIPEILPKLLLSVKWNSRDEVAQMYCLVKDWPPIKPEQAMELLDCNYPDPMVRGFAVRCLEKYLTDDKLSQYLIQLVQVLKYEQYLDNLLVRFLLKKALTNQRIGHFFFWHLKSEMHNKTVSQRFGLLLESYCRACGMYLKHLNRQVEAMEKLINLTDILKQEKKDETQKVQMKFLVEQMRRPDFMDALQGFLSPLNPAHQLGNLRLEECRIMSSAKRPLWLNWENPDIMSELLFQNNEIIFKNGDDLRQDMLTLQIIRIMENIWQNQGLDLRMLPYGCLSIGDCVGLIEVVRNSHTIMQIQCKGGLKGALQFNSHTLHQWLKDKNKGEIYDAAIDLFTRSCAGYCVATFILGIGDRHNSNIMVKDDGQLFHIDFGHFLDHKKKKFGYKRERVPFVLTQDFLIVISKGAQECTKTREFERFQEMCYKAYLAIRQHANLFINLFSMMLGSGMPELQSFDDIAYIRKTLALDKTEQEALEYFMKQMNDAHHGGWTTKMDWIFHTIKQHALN

PIK3CB (Human) [5] = molecular target: PIK3CB (Human) (UniProt P42338); experiment: Cell-Based Assay; conditions: 786-o
PIK3CA (human) [6] = molecular target: PIK3CA (human) (UniProt P42336); experiment: Enzyme Assay

PIK3CG (human), sequence (P48736 whole entry, looked up): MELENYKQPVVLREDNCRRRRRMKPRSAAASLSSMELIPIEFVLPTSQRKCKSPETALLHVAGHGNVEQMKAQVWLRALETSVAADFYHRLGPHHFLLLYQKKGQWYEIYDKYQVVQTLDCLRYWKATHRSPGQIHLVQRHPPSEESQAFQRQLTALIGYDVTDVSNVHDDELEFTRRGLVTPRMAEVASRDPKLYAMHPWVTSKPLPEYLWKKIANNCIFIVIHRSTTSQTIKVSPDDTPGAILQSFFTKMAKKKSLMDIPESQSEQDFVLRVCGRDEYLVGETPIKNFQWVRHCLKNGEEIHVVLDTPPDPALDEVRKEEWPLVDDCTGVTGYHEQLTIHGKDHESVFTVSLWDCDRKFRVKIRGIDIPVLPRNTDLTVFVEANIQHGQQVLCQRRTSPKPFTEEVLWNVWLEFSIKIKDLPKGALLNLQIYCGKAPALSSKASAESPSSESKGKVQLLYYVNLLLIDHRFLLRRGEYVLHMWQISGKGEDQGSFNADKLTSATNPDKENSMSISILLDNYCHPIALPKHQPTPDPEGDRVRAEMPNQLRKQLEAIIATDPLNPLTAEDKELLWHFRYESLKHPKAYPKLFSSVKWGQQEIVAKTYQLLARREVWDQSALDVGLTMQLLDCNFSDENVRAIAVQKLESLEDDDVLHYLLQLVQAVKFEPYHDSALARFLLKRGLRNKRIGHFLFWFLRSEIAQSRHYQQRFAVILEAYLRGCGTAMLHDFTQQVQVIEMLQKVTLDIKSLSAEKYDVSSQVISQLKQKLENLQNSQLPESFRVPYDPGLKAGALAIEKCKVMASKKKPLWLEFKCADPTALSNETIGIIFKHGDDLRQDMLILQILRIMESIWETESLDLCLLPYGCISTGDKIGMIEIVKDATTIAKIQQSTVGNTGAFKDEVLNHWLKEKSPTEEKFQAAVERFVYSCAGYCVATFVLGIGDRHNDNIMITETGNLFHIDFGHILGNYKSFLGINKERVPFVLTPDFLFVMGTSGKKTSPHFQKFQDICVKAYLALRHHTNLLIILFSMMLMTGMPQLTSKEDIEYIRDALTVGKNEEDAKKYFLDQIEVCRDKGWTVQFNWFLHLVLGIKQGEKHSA
PIK3CB (Human), sequence (P42338 whole entry, looked up): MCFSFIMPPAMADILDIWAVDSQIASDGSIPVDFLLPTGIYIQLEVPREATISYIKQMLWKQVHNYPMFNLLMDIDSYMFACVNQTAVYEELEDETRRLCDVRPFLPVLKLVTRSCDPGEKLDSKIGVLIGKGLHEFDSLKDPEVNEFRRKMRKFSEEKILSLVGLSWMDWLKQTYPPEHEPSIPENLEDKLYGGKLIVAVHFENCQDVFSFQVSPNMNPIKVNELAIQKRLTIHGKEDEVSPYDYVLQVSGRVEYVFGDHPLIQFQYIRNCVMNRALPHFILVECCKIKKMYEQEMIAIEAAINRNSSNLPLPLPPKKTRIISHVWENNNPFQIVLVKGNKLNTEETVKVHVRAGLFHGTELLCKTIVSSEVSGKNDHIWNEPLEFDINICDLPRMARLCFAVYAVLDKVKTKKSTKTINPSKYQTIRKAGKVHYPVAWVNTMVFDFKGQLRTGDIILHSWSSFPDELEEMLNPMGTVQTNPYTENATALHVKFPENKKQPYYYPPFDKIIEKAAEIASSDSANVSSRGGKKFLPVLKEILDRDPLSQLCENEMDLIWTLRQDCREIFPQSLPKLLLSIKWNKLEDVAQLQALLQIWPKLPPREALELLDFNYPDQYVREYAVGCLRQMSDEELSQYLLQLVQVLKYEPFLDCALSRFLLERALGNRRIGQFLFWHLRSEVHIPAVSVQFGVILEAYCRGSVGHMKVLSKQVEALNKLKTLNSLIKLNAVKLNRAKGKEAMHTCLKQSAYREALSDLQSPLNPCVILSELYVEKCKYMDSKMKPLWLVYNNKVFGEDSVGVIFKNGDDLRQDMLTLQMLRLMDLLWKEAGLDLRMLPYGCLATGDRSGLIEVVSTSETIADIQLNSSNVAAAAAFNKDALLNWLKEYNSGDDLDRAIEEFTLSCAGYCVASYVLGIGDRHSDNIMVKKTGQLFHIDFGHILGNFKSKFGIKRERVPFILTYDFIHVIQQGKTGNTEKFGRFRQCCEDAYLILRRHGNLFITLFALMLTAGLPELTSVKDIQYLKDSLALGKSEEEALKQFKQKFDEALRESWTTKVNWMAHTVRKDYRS
PIK3CD (Human), sequence (O00329 whole entry, looked up): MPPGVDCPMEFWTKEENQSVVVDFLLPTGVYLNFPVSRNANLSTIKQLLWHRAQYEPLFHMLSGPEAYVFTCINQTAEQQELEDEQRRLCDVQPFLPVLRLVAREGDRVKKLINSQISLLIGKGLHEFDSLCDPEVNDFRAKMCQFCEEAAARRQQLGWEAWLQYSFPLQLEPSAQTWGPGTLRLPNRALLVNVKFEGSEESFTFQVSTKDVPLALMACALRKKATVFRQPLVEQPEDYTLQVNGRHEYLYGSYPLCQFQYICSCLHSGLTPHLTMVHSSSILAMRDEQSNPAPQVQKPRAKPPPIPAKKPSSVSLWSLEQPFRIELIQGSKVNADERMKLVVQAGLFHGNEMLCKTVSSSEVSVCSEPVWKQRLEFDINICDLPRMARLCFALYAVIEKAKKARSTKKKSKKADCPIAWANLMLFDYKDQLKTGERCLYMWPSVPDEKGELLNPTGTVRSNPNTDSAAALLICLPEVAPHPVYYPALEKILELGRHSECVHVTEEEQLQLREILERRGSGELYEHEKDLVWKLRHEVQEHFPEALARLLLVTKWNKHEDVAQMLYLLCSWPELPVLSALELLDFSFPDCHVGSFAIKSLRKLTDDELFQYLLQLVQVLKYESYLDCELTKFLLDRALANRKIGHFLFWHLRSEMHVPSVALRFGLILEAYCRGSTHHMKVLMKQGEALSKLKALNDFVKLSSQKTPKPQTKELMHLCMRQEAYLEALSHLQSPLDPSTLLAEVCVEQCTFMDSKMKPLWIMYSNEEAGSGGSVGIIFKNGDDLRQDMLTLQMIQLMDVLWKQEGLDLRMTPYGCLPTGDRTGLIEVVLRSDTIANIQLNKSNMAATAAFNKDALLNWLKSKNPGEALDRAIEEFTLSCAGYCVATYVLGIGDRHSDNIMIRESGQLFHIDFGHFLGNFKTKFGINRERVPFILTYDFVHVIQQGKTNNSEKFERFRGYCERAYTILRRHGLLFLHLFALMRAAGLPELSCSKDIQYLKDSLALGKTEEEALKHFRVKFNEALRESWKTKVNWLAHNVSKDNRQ

Compound	IC50 (PIK3CB (Human) [1])	IC50 (PIK3CD (Human) [2])	IC50 (PIK3CG (human))	IC50 (PIK3CD (Human) [3])	IC50 (PIK3CA (human) [4])	IC50 (PIK3CB (Human) [5])	IC50 (PIK3CA (human) [6])
C[C@H](Nc1ncnc2scnc12)c1cc2cccc(-c3cncc(N)c3)c2c(=O)n1-c1ccccc1	> 10000 nM	< 100 nM	100 to 1000 nM	< 100 nM			
CC(C)n1c([C@H](C)Nc2ncnc3scnc23)cc2cccc(-c3ccc(=O)n(C)c3)c2c1=O		< 100 nM	100 to 1000 nM	< 100 nM	100 to 1000 nM	100 to 1000 nM	
COc1ncc(-c2cccc3cc([C@H](C)Nc4ncnc5scnc45)n(-c4ccon4)c(=O)c23)cn1		< 100 nM	100 to 1000 nM	< 100 nM	100 to 1000 nM	100 to 1000 nM	
C[C@H](Nc1ncnc2scnc12)c1cc2cccc(Cl)c2c(=O)n1-c1ccon1	100 to 1000 nM	< 100 nM	100 to 1000 nM	< 100 nM			> 10000 nM
CC(C)n1c([C@H](C)Nc2ncnc3scnc23)cc2cccc(-c3ccnnc3)c2c1=O	> 10000 nM	100 to 1000 nM	> 10000 nM	< 100 nM			> 10000 nM
C[C@H](Nc1ncnc2scnc12)c1cc2cccc(-c3cnn(C)c3)c2c(=O)n1-c1ccccc1		< 100 nM	< 100 nM	< 100 nM	100 to 1000 nM		100 to 1000 nM
Cc1ncc(-c2cccc3cc([C@H](C)Nc4ncnc5scnc45)n(-c4ccon4)c(=O)c23)cn1	> 10000 nM	100 to 1000 nM	> 10000 nM	< 100 nM			> 10000 nM
COc1ncc(-c2cccc3cc([C@H](C)Nc4ncnc5scnc45)n(-c4ccccc4)c(=O)c23)cn1		< 100 nM	< 100 nM	< 100 nM			
